Source: patent US20100216817A1, “Antitumoral Tetrahydro-Pyrimidines” (Pharma Mar SA, priority 2005, published 2010)
Where two headings read alike, the source gives them in different places.

What was measured:
[1] = tested on: IGROV; assay: SRB colorimetric cell growth inhibition assay; conditions: for GI50 / CC50: Homo sapiens, 48 h; for CC50: read-out: LC50; for TGI: ovary, 48 hours exposure
[2] = tested on: HT29; assay: SRB colorimetric cell growth inhibition assay; conditions: for TGI: HT29, colon, 48 hours exposure; for GI50 / CC50: Homo sapiens, HT-29, 48 h; for CC50: read-out: LC50
[3] = tested on: PANC1; assay: SRB colorimetric cell growth inhibition assay; conditions: for GI50 / CC50: Homo sapiens, PANC-1, 48 h; for CC50: read-out: LC50; for TGI: PANC1, pancreas, 48 hours exposure
[4] = tested on: SK-MEL-28; assay: SRB colorimetric cell growth inhibition assay; conditions: for GI50 / CC50: Homo sapiens, SK-MEL-28, 48 h; for CC50: read-out: LC50; for TGI: SK-MEL-28, melanoma, 48 hours exposure
[5] = tested on: A549; assay: SRB colorimetric cell growth inhibition assay; conditions: for TGI: A549, NSCL, 48 hours exposure; for GI50 / CC50: Homo sapiens, A549, 48 h; for CC50: read-out: LC50
[6] = tested on: DU-145; assay: SRB colorimetric cell growth inhibition assay; conditions: for TGI: DU-145, prostate, 48 hours exposure; for GI50 / CC50: Homo sapiens, DU-145, 48 h; for CC50: read-out: LC50
[7] = tested on: HELA-APL; assay: SRB colorimetric cell growth inhibition assay; conditions: for TGI: HELA-APL, cervix, Aplidine resistant, 48 hours exposure; for GI50 / CC50: Homo sapiens, 48 h; for CC50: read-out: LC50
[8] = tested on: LN-caP; assay: SRB colorimetric cell growth inhibition assay
[9] = tested on: LOVO; assay: SRB colorimetric cell growth inhibition assay; conditions: for GI50 / CC50: Homo sapiens, LoVo, 48 h; for CC50: read-out: LC50; for TGI: LOVO, colon, 48 hours exposure
[10] = tested on: IGROV-ET; assay: SRB colorimetric cell growth inhibition assay; conditions: for GI50 / CC50: Homo sapiens, 48 h; for CC50: read-out: LC50; for TGI: IGROV-ET, ovary, 48 hours exposure
[11] = tested on: SK-BR3; assay: SRB colorimetric cell growth inhibition assay; conditions: for GI50 / CC50: Homo sapiens, SK-BR-3, 48 h; for CC50: read-out: LC50; for TGI: SK-BR3, breast, 48 hours exposure
[12] = tested on: HELA; assay: SRB colorimetric cell growth inhibition assay; conditions: for TGI: HELA, cervix, 48 hours exposure; for GI50 / CC50: Homo sapiens, HeLa, 48 h; for CC50: read-out: LC50
[13] = tested on: LOVO-DOX; assay: SRB colorimetric cell growth inhibition assay; conditions: for GI50 / CC50: Homo sapiens, 48 h; for CC50: read-out: LC50; for TGI: LOVO-DOX, colon (MDR), 48 hours exposure
[14] = tested on: Staphylococcus aureus; conditions: cited from earlier work
[15] = tested on: Streptococcus fecalis; conditions: J. Org. Chem. 1992, 57, 3832-3835; cited from earlier work
[16] = tested on: Bacteroides fragilis; conditions: Tetrahedron 1994, 50, 3415-3426; cited from earlier work
[17] = tested on: Clostridium perfringens; conditions: Tetrahedron 1994, 50, 3415-3426; cited from earlier work
[18] = tested on: Peptococcus assaccharolyticus; conditions: Tetrahedron 1994, 50, 3415-3426; cited from earlier work
[19] = tested on: Pseudomonas aeruginosa; conditions: cited from earlier work
[20] = tested on: Escherichia coli; conditions: cited from earlier work
[21] = J. Org. Chem. 1992, 57, 3832-3835
[22] = Tetrahedron 1994, 50, 3415-3426

CCCCCCC#C/C=C\CCCCCCCC1=NCCCN1CCCCNC(=N)N [Compound A]
GI50 [1]: 0.579 µM
CC50 [1]: 5.31 µM
TGI [1]: 1.53E−6 Molar
TGI [2]: 2.98E−6 Molar
GI50 [2]: 1.01 µM
CC50 [2]: 8.42 µM
GI50 [3]: 0.535 µM
CC50 [3]: 2.91 µM
TGI [3]: 1.16E−6 Molar
GI50 [4]: 0.649 µM
CC50 [4]: 7.66 µM
TGI [4]: 2.49E−6 Molar
TGI [5]: 3.61E−6 Molar
GI50 [5]: 1.22 µM
CC50 [5]: 12.5 µM
TGI [6]: 8.80E−7 Molar
GI50 [6]: 0.424 µM
CC50 [6]: 1.83 µM
TGI [7]: 1.07E−6 Molar
GI50 [7]: 0.54 µM
CC50 [7]: 2.11 µM
GI50 ([8]; Homo sapiens, LNCaP, 48 h): 0.333 µM
CC50 ([8]; Homo sapiens, LNCaP, 48 h, read-out: LC50): 1.37 µM
TGI ([8]; LN-caP, prostate, 48 hours exposure): 6.73E−7 Molar
GI50 [9]: 0.475 µM
CC50 [9]: 1.41 µM
TGI [9]: 8.17E−7 Molar
GI50 [10]: 0.463 µM
CC50 [10]: 4.42 µM
TGI [10]: 1.26E−6 Molar
GI50 [11]: 0.789 µM
CC50 [11]: 1.81 µM
TGI [11]: 1.20E−6 Molar
TGI [12]: 2.42E−6 Molar
GI50 [12]: 0.801 µM
CC50 [12]: 1.04 µM
GI50 [13]: 1.78 µM
CC50 [13]: 13 µM
TGI [13]: 5.14E−6 Molar

N=C(N)NCCCCN1CCCN=C1CCCCCCCC=O [Compound B]
GI50 [1]: > 9.29 µM
CC50 [1]: > 9.29 µM
TGI [1]: >9.29E−6 Molar
TGI [2]: >9.29E−6 Molar
GI50 [2]: > 9.29 µM
CC50 [2]: > 9.29 µM
GI50 [3]: > 9.29 µM
CC50 [3]: > 9.29 µM
TGI [3]: >9.29E−6 Molar
GI50 [4]: > 9.29 µM
CC50 [4]: > 9.29 µM
TGI [4]: >9.29E−6 Molar
TGI [5]: >9.29E−6 Molar
GI50 [5]: > 9.29 µM
CC50 [5]: > 9.29 µM
TGI [6]: >9.29E−6 Molar
GI50 [6]: > 9.29 µM
CC50 [6]: > 9.29 µM
TGI [7]: >9.29E−6 Molar
GI50 [7]: > 9.29 µM
CC50 [7]: > 9.29 µM
GI50 [9]: > 9.29 µM
CC50 [9]: > 9.29 µM
TGI [9]: >9.29E−6 Molar
GI50 [10]: > 9.29 µM
CC50 [10]: > 9.29 µM
TGI [10]: >9.29E−6 Molar
GI50 [11]: > 9.29 µM
CC50 [11]: > 9.29 µM
TGI [11]: >9.29E−6 Molar
TGI [12]: >9.29E−6 Molar
GI50 [12]: > 9.29 µM
CC50 [12]: > 9.29 µM
GI50 [13]: > 9.29 µM
CC50 [13]: > 9.29 µM
TGI [13]: >9.29E−6 Molar

Phloeodictine A
MIC [14, 21]: 1 mg/L
MIC [14, 22]: 3 mg/L
MIC [15]: 5 mg/L
MIC [16]: 1 mg/L
MIC [17]: 30 mg/L
MIC [18]: 10 mg/L
MIC [19, 21]: 10 mg/L
MIC [19, 22]: 30 mg/L
MIC [20, 21]: 1 mg/L
MIC [20, 22]: 3 mg/L

Phloeodictine B
MIC [14, 21]: 3 mg/L
MIC [14, 22]: 30 mg/L
MIC [15]: > 15 mg/L
MIC [16]: > 30 mg/L
MIC [17]: > 30 mg/L
MIC [18]: > 30 mg/L
MIC [19, 21]: > 30 mg/L
MIC [20, 21]: 30 mg/L
MIC [20, 22]: 30 mg/L
